Data: EP2545917B1, “NOVEL EP4 AGONIST” (Kaken Pharmaceutical Co., Ltd., priority 2010, dated 2011)

Tests used:
[1] = tested on: anti-Thy-1 antibody-induced glomerulonephritis; assay: Anti-Thy-1 antibody-induced glomerulonephritis model in rats; assay type: in vivo, Wistar rats; conditions: oral 0.3 mg/kg twice a day
Procedure: Male Slc: Wistar rats (6 weeks old, Japan SLC) were purchased, acclimated for 1 week and used for the study. Except the normal group, anti-Thy-1 antibody (mouse anti-CD90 antibody (UK-Serotech Ltd. Code:MCA47XZ, clone No: MRC OX-7, Lot No.0303)) was administered once intravenously to the animals. A mixture of compound F and compound J (F:J = 52:41, indicated as compound F/J) was orally administered from the day of the antibody administration (day 0) to day 6, daily, twice a day (morning and evening; each 0.3 mg/kg). After 3 days from the antibody administration, urine was collected for one day. On day 7 of the antibody administration, the animal was autopsied. The right kidney was isolated, weighed and fixed with formalin. Five to 8 animals were used for each group and the results were expressed as average ± standard deviation.

[2] = tested on: dextran sodium sulfate-induced colitis; assay: Therapeutic effect on remission/relapse model of dextran sodium sulfate-induced colitis in mice; assay type: in vivo, BALB/c mice; conditions: SASP 100 mg/kg
Text: Next, therapeutic effect of compound F on colitis was studied in a chronic model. Female BALB/c mice, 6 weeks old, body weight about 20 g (Japan SLC) were purchased, acclimated for 1 week and used for the study. The mice were divided into a colitis induction group and a normal group. The colitis induction group was allowed to freely drink a 2.6 w/v% DSS (MP Biochemicals, M.W. 36,000- 50,000, Lot No. 4556J) solution to induce colitis. On day 8 when the stool score (defined in Example 23) of the colitis induction group reached about 4.5, the mice were subdivided into a control group, a compound F 1 mg/kg administration group and a salazosulfapyridine (SIGMA, Lot No. 085K1930, hereinafter to be abbreviated as SASP) 100 mg/kg administration group. Then the mice were allowed to freely drink distilled water instead of DSS solution for 9 days (remission period). After the grouping, the stool score was evaluated every 3 - 4 days. When the score of the control group reached about 1, the mice were again allowed to drink the DSS solution to cause a relapse (relapse period). The periods of remission and relapse were taken as 1 cycle and the cycle was repeated 5 times. As for the 5th cycle, however, only the remission period was performed.
Compound F at a dose of 1 mg/kg and SASP at a dose of 100 mg/kg were orally administered once a day, daily, for 50 days from the initial remission period (day 8 from the start of 2.6 w/v% DSS drinking) to the fifth remission period (day 57 from the start of 2.6 w/v% DSS drinking). To the control group was orally administered a solvent (1 vol% ethanol solution) at 10 mL/kg. If a mouse had score 0 of both stool consistency score and occult blood score on the last day of each remission period, the mouse was regarded as "in remission". The remission ratio (%) was calculated as a ratio of mice in remission in each group. Eight to 10 mice were used for each group and the results are shown in average value.

[3] = tested on: concanavalin A-induced hepatitis; assay: Prophylactic effect on concanavalin A-induced hepatitis model in mice; assay type: in vivo, BALB/c mice; conditions: oral 1 hr before Con A, compound F 1 mg/10 mL/kg, prednisolone 5 mg/10 mL/kg, 20 hr after Con A
Procedure: BALB/c mice (female, 7 weeks old, Japan SLC) were purchased, acclimated for 1 week and used for the study. Except the no-induction group, Con A (type IV, Sigma-Aldrich) dissolved in saline was administered from the tail vein of the mice at a dose of 12.5 mg/10 mL/kg to induce hepatitis. Twenty hr later, the mice were subjected to laparotomy under ether anesthesia. A 0.5 mL of blood sample was collected from the caudal vena cava and heparinized plasma was obtained to measure plasma ALT and AST activities. Test substances were compound F (1 mg/10 mL solution), prednisolone (Nacalai Tesque, 5 mg/10 mL suspension (with 0.5 w/v% methylcellulose)) and water for injection (administered to the control group), which were orally administered at a volume of 10 mL/kg 1 hr before Con A injection. Seven to 9 animals were used for each group. After logarithmic transformation of the data, one-way analysis of variance was performed for statistical evaluation.

[4] = tested on: CD4+CD25- T cell transfer colitis; assay: Prophylactic effect on CD4+CD25- T cell transfer colitis model in mice; assay type: in vivo, C.B-17/Icr-scid mice; conditions: scid mice, oral 1 mg/kg once a day for 20 days
Procedure: Female BALB/cA Jcl mice, 6 weeks old, body weight 19 - 23 g (CLEA Japan, Inc.) and female C.B-17/Icr-scid mice (6 weeks old, CLEA Japan, Inc.) were purchased, acclimated for 1 week and used for the study. After laparotomy under ether anesthesia, BALB/cA Jcl mice were exsanguinated to death through the abdominal aorta and caudal vena cava, and the spleen was isolated. Splenocytes were prepared from the spleen and then CD4^+CD25^- T cells were prepared with a CD4^+ T cell Isolation Kit (No. 130-090-860, Milky Biotech Co., Ltd.) and CD25-Biotin antibody (No. 130-092-569, Milky Biotech Co., Ltd.). The cells were separated using the autoMACS Separator (Milky Biotech Co., Ltd.). The separated CD4^+CD25^- T cells were suspended in physiological phosphate buffer solution, and 2.5×10^5 cells per animal were intraperitoneally administered to C.B-17/Icr-scid mice to induce colitis. […] To the control group was orally administered a solvent (1 vol% ethanol solution) at 10 mL/kg. […] The fecal occult blood score was evaluated in the same manner as in Example 23. […] Eight to 10 mice were used for each group and the results were expressed as average.

[5] = mice, oral once a day, Compound F 1 mg/kg

## Cc1cccc(C(C)[C@H](O)/C=C/[C@@H]2[C@@H]3[C@H](C[C@H]2O)O/C(=C\CCCc2nnn[nH]2)C3(F)F)c1 (mixture of isomers) [compound F/J, 4-[(Z)-(1S,5R,6R,7R)-6-[(1E,3R,4RS)-3-hydroxy-4-(m-tolyl)-1-pentenyl]-7-hydroxy-2-oxa-4,4-difluoro-bicyclo[3.3.0]octan-3-ylidene]-1-(tetrazol-5-yl)butane]
[1]
  body weight: a shift similar to that of the control group
[1]; day 7
  relative kidney weight: a value lower than control and near the normal
  renal histopathology: total glomerular cells, mesangial region and PCNA-positive cells in the glomerulus: significantly suppressed the increase in all of these measures
[1]; urine collected after 3 days
  24-hr urine protein: a lower value than control
  24-hr urine volume: of the same level as the normal group

## O=C(O)c1cc(/N=N/c2ccc(S(=O)(=O)Nc3ccccn3)cc2)ccc1O [SASP, salazosulfapyridine, reference compound]
[2]; average of 5 remission periods, Compound F 1 mg/kg
  Remission Ratio Average: 40.0%
[2]; mice, oral once a day for 50 days, compound F 1 mg/kg
  effect on stool score in remission and relapse periods: did not show a clear effect on the stool score in either the remission period or the relapse period
[2]; [5]
  Remission Ratio Cycle 1: 50.0%
  Remission Ratio Cycle 2: 50.0%
  Remission Ratio Cycle 3: 37.5%
  Remission Ratio Cycle 4: 50.0%
  Remission Ratio Cycle 5: 12.5%

## C[C@]12C=CC(=O)C=C1CC[C@@H]1[C@@H]2[C@@H](O)C[C@@]2(C)[C@H]1CC[C@]2(O)C(=O)CO [prednisolone, reference compound]
[3]
  effect on increase of plasma ALT activity: significantly and strongly suppressed the increase
  effect on increase of plasma AST activity: significantly and strongly suppressed the increase
[4]
  effect on body weight decrease score: clearly worsened the score
  effect on stool consistency score: failed to show a clear effect on the stool consistency score on day 21
